From US6558650B1, “Enhancement of cellular gallium uptake” (Oregon Health and Science University, priority 1998, dated 2003)

How the values were obtained:
[1] = tested on: TfR− and TfR+ cells (Chinese Hamster Ovary); test: Cellular uptake of Ga-67, text statements that do not separate TfR− and TfR+ cells; assay type: cell-based
From the text: (§1) A pair of transfected Chinese Hamster Ovary cells lines were used to compare, in a controlled manner, the Tf-dependent and Tf-independent systems for the uptake of Ga-67.
(§2) The two cell lines are identical except that TfR-cells express no TfR, and TfR+ cells over-express the transfected human TfR constitutively. This means that expression of the TfR is independent of cell growth or iron content, which could alter the cells matabolically in many ways that may confound a well-controlled experimental determination of cause and effect. TfR− and TfR+ cells were grown in monolayer and maintained as previously described (37).
The tube was placed on its side on the surface of a cool, daylight color-balanced, fluorescent light box (Just Normlicht).
The temperature at the surface of the light box was 29° C. for the fluorescent light box, and 37° C. for the UV light box. The PDN was added to 10 ml of incubation solution (below) to achieve concentrations ranging from 0.25 μM to 100 μM. Each 10 ml sample of incubation solution contained an equal quantity of ethanol (approximately 100 µl per 10 ml), including the controls.
Following growth of cells in 25 cm^2 flasks to subconfluence, monolayers of cultured cells were first washed, and then pre-incubated for 2 hours at 37° C. with 5 ml serum-free Dulbecco's Modified Essential Medium (DMEM) to deplete the cells of Tf. The pre-incubation medium was then removed and replaced by 1.5 ml of the incubation solution containing 10 uCi/ml carrier-free Ga-67 citrate (Mallinckrodt) in Hank's Balanced Salt solution (HBSS), pre-warmed to 37° C. The concentration of Ga-67 in the incubation solution was approximately 0.25 nM. The HBSS, pH 7.2-7.4, contained 3.7 g/L NaHCO3, 1 mM CaCl2, and 1 mM magnesium salts. Cells were incubated in the PDN- and Ga-67-containing solutions in a CO2 incubator at 37° C. for intervals ranging from 10 seconds to 90 minutes. All experiments were conducted in the dark.
Following incubation of cells with Ga-67, the flasks were immediately placed on ice. The radioactive material was removed by aspiration with a Pasteur pipette attached to water suction. The monolayers were washed 3 times with 5 ml each ice cold HBSS. Cells were washed once with phosphate-buffered saline (PBS), pre-warmed to 37° C. The PBS was removed and the cellular monolayer overlaid with 1.5 ml 0.25% trypsin containing 1 mM EDTA. The trypsin was immediately removed and the cells were incubated briefly (1 minute) at 37° C. The cells in each flask were then dislodged by several gentle mechanical blows to the side of the flask and collected in 200 μl ice cold PBS.
By a modification of a method previously published for radiolabeling of protozoan parasites (38), the cells were then separated from unbound contaminating radioactivity. The 200 μl of cells in PBS were layered gently over 200 μl of an 8.5:1.5 ratio of dibutylpthalate:liquid paraffin oil in a 1.5 ml microfuge tube. With care not to agitate the mixture, the tubes were than centrifuged at 12,000 rpm for 2 minutes in a microfuge. The supernatant and the oil was then aspirated carefully from the top of the tube with a Pasteur pipette attached to water suction. The bottom of the microfuge tube, containing the cell pellet (typical pellet volume˜100 μl), was then clipped with a microfuge tube clipper into a counting vial containing 900 μl of a solution of 200 mM NaOH. 1% SDS. The cell pellet was dissolved in this solution. The content of radioactivity in the samples was determined by a gamma well counting (Packard) in comparison to standard dilutions of the original Ga-67 incubation solution.
Protein assays were performed on the solubilized cell samples by formation of a cuprous bicinchonicic acid complex using a spectrophotometric microtiter plate reader (Dynatech) (39). The method and reagents used are supplied in a kit (Pierce) and were performed according to the manufacturer's directions.

[2] = tested on: TfR+ cells (transfected Chinese Hamster Ovary cells over-expressing human TfR); conditions: 0.5 h, 25 µM
From the text: as §1, §2
(§3) The tube was placed on its side on the surface of a cool, daylight color-balanced, fluorescent light box (Just Normlicht). […]
(§4) The temperature at the surface of the light box was 29° C. for the fluorescent light box, and 37° C. for the UV light box. […] Each 10 ml sample of incubation solution contained an equal quantity of ethanol (approximately 100 µl per 10 ml), including the controls. […]
(§5) By a modification of a method previously published for radiolabeling of protozoan parasites (38), the cells were then separated from unbound contaminating radioactivity. […] The content of radioactivity in the samples was determined by a gamma well counting (Packard) in comparison to standard dilutions of the original Ga-67 incubation solution. […]

[3] = tested on: TfR− cells (transfected Chinese Hamster Ovary cells expressing no TfR); conditions: 0.5 h, 25 µM
From the text: as §1, §2, §3, §4, §5

[4] = oral; cited from earlier work
[5] = tested on: nucleated rabbit erythrocytes; conditions: isolated nitroso-derivative compared with crude photo-degraded nifedipine (44); cited from earlier work

COC(=O)C1=C(C)NC(C)=C([N+](=O)[O-])C1c1ccccc1C(F)(F)F (centres unmarked) [BAY K 8644]
effect on Ga-67 uptake ([1]; light-protected compound): None of the light-protected or photo-irradiated compounds had an effect
effect on Ga-67 uptake ([1]; photo-irradiated compound): None of the light-protected or photo-irradiated compounds had an effect

COC(=O)C1=C(C)NC(C)=C(C(=O)OC)C1c1ccccc1[N+](=O)[O-] [Nifedipine, dimethyl 1,4-dihydro-2,6-dimethyl-4-(2-nitrophenyl)-3,5-pyridinedicarboxylate]
fmoles Ga-67/mg Total Cellular Protein, TfR+ cells [2]: 0.296 fmoles Ga-67/mg Total Cellular
fmoles Ga-67/mg Total Cellular Protein, TfR− cells [3]: .171 fmoles Ga-67/mg Total Cellular
time to peak plasma levels post ingestion [4]: approximately 30 minutes

COc1ccc([C@@H]2Sc3ccccc3N(CCN(C)C)C(=O)[C@@H]2OC(C)=O)cc1 [diltiazem]
effect on Ga-67 uptake ([1]; light-protected compound): None of the light-protected or photo-irradiated compounds had an effect
effect on Ga-67 uptake ([1]; photo-irradiated compound): None of the light-protected or photo-irradiated compounds had an effect

CC(=O)c1c(C)nc(C)c(C(C)=O)c1-c1ccccc1N=O [nitroso-derivative, 2,6-dimethyl-3,5-diacetyl-4-(2′-nitrosophenyl)-pyridine]
gallium uptake (inferred from conditions that correlate with presence of the nitroso-derivative) ([1]; not tested in isolation, inferred from Example 3 data): enhances gallium uptake
pharmacological action in enhancing the uptake of Fe^2+ [5]: same pharmacological action as “crude” photo-degraded nifedipine

COc1ccc(CCN(C)CCCC(C#N)(c2ccc(OC)c(OC)c2)C(C)C)cc1OC (centres unmarked) [verapamil]
effect on Ga-67 uptake ([1]; light-protected compound): None of the light-protected or photo-irradiated compounds had an effect
effect on Ga-67 uptake ([1]; photo-irradiated compound): None of the light-protected or photo-irradiated compounds had an effect
